The values below come from PMC6271259, “Design, Synthesis and SAR Study of Novel Trisubstituted Pyrimidine Amide Derivatives as CCR4 Antagonists” (Molecules, 2014).

For data set [1], the system named is CCR4-positive cells. Further details: method as in earlier work. Conditions: migration induced by MDC, TARC, and CKLF1; cited from earlier work.
The target of data set [2] is T1, CCR4 (Homo sapiens, UniProt P51679).
T1 construct: expressed in transfected cells; host or cells: L1.2 cells transfected with pcDI-CCR4
T1 sequence (P51679 1-360): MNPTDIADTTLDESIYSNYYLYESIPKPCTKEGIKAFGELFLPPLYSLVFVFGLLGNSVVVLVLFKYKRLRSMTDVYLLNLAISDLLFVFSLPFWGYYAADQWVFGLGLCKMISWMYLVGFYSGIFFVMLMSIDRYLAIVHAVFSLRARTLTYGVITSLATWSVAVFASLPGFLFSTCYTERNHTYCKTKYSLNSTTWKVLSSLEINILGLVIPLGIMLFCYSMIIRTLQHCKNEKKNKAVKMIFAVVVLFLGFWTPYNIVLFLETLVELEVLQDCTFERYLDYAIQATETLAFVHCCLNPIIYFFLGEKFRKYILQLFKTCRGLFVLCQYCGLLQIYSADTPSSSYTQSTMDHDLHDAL
Nature of the data set: CCR4-MDC chemotaxis inhibition assay (48-well Boyden chamber, L1.2 cells transfected with pcDI-CCR4). The class given is cell-based. The following applies: for IC50: MDC 10 ng/mL, L1.2 cells transfected with pcDI-CCR4, compound preincubation 30 min at 37 °C, chamber 6 h, assayed three times, NA = no significant inhibition; for Chemotaxis inhibition activity against CCR4 (in words, compared with compound 1): CCR4-MDC chemotaxis inhibition assay, compound 1 as positive control. As to the method:
All the newly synthesized compounds were evaluated by a CCR4-MDC chemotaxis inhibition assay. Compound 1 was employed as the positive control.
The quantitative chemotaxis assays were performed using 48-well Boyden chambers (Neutroprobe, Bethesda, MD, USA) with polyvinylpyrrolidone-free polycarbonate filters with 5 μm pores. The MDC (Peprotech, Rocky Hill, NJ, USA) with a final concentration of 10 ng/mL was added into the lower wells. The L1.2 cells that were transfected with pcDI-CCR4 were suspended in assay buffer at 3 × 10^6 cells/mL, incubated with various final concentrations of compounds for 30 min at 37 °C, and then added to the upper wells. The chamber was incubated for 6 h at 37 °C in an atmosphere containing 5% CO2, and then the upper chambers were removed. The chemotaxis buffer in the lower wells was then harvested and mixed with 25 μL of the luciferase-containing reagent, Cell-Titer Glo. The number of L1.2 cells in the lower well medium was measured with a Veritas Microplate Luminometer (Turner BioSystems, Sunnyvale, CA, USA). All samples were assayed three times. The negative control samples and solvent control samples were defined as the cells migrating toward the lower wells in the absence of chemokine, and as the cells migrating toward the MDC-containing lower wells in the absence of compound in the presence of DMSO, respectively. The percentage of inhibition was determined by the following equation: inhibition = (C − A)/(C − B) × 100%, where A indicates the number of cells in the sample, B indicates the number of cells in the negative control sample and C indicates the number of cells in the solvent control sample. The results are expressed as an IC50 value (sample concentration that inhibits 50% chemotaxis) and calculated using Origin 8.0 software.

Turning to `O=C([C@H]1CCCCN1)N1CCN(c2nc(Cl)cc(NCc3ccc(Cl)cc3Cl)n2)CC1` [Compound 1], the “Inhibition of migration of CCR4-positive cells” value in data set [1] was “inhibit the migration of CCR4-positive cells”. In addition, the 50% inhibitory concentration (IC50) in data set [2] stood at 78 ± 13 nM.
As to `O=C(c1ccccn1)N1CCN(c2nc(Cl)cc(NCc3ccc(Cl)cc3Cl)n2)CC1` [Compound 6a, 6-Chloro-2-[4-(pyridin-2-yl)carbonylpiperazino]-N-(2,4-dichlorobenzyl)pyrimidin-4-amine], the “Chemotaxis inhibition activity against CCR4 (in words, compared with compound 1)” value in data set [2] is “did not result in significant inhibition activity”.
With `O=C(C1CCCCC1)N1CCN(c2nc(Cl)cc(NCc3ccc(Cl)cc3Cl)n2)CC1` [Compound 6b, 6-Chloro-2-(4-cyclohexylcarbonylpiperazino)-N-(2,4-dichlorobenzyl)pyrimidin-4-amine], the melting point was in the range of 175.3 to 177.1 °C. The “Chemotaxis inhibition activity against CCR4 (in words, compared with compound 1)” value in data set [2] is listed as “did not result in significant inhibition activity”.
`CN(C)CC(=O)N1CCN(c2nc(Cl)cc(NCc3ccc(Cl)cc3Cl)n2)CC1` [Compound 6c, 6-Chloro-2-[4-(N,N-dimethylaminomethyl)carbonylpiperazino]-N-(2,4-dichlorobenzyl)pyrimidin-4-amine]: the melting point was 166.5 to 168.5 °C. Further, the midpoint of inhibition in data set [2], the IC50, lay at 64 ± 15 nM.
As to `O=C([C@H]1CCCCN1)N1CCN(c2nc(Cl)cc(NCc3ccc(Cl)cc3)n2)CC1` [Compound 6d, (R)-6-Chloro-2-[4-(piperidin-2-yl)carbonylpiperazino]-N-(4-chlorobenzyl)pyrimidin-4-amine], in data set [2], the “Chemotaxis inhibition activity against CCR4 (in words, compared with compound 1)” value is recorded as “significantly reduced activity” and the IC50 was found to be 458 ± 51 nM.
Turning to `O=C([C@H]1CCCCN1)N1CCN(c2nc(Cl)cc(NCc3ccc(F)cc3F)n2)CC1` [Compound 6e], the melting point is 87.2 to 89 °C. In data set [2], the “Chemotaxis inhibition activity against CCR4 (in words, compared with compound 1)” value is recorded as “slightly reduced activity” and the midpoint of inhibition, the IC50, lay at 94 ± 17 nM.
As to `O=C([C@H]1CCCCN1)N1CCN(c2nc(NCc3ccc(Cl)cc3Cl)cc(N3CCCCC3)n2)CC1` [Compound 7a, (R)-2-[4-(Piperidin-2-yl)carbonylpiperazino]-N-(2,4-dichlorobenzyl)-6-piperidino pyrimidin-4-amine], in data set [2], the “Chemotaxis inhibition activity against CCR4 (in words, compared with compound 1)” value is “relatively poorer activity” and inhibition was half-maximal at 133 ± 21 nM (IC50).
`O=C([C@H]1CCCCN1)N1CCN(c2nc(NCc3ccc(Cl)cc3Cl)cc(N3CCOCC3)n2)CC1` [Compound 7b, (R)-2-[4-(Piperidin-2-yl)carbonylpiperazino]-N-(2,4-dichlorobenzyl)-6-morpholino pyrimidin-4-amine] gave a melting point of 167.8 to 169.5 °C. Also, in data set [2], the “Chemotaxis inhibition activity against CCR4 (in words, compared with compound 1)” value is listed as “relatively poorer activity” and the IC50 came out at 395 ± 66 nM.
As to `Cc1cc(NCc2ccc(Cl)cc2Cl)nc(N2CCN(C(=O)[C@H]3CCCCN3)CC2)n1` [Compound 12a, (R)-2-[4-(Piperidin-2-yl)carbonylpiperazino]-N-(2,4-dichlorobenzyl)-6-methylpyrimidin-4-amine], the melting point lay within 82.6 to 84.5 °C. In addition, in data set [2], the 50% inhibitory concentration (IC50) was found to be 77 ± 13 nM.
In data set [2], `Cc1cc(NCc2ccc(Cl)cc2Cl)nc(N2CCN(C(=O)CN(C)C)CC2)n1` [Compound 12b, 2-[4-(N,N-dimethylaminomethyl)carbonylpiperazino]-N-(2,4-dichlorobenzyl)-6-methyl pyrimidin-4-amine] gave a half-inhibitory concentration (IC50) of 69 ± 15 nM.
Turning to `Cc1cc(NCc2ccc(Cl)cc2Cl)nc(N2CCN(C(=O)C3CCN(C)CC3)CC2)n1` [Compound 12c, 2-[4-(N-methylpiperidin-4-yl)carbonylpiperazino]-N-(2,4-dichlorobenzyl)-6-methylpyrimidin-4-amine], the melting point lay within 146.4 to 148 °C. In data set [2], the “Chemotaxis inhibition activity against CCR4 (in words, compared with compound 1)” value was “relatively weak activity” and the concentration for half-maximal inhibition (IC50) came to 178 ± 28 nM.
Taken in the same sequence, the figures for `Cc1cc(NCc2ccc(Cl)cc2Cl)nc(N2CCN(C(=O)[C@H]3CCCO3)CC2)n1` [Compound 12d, (R)-2-[4-(Tetrahydrofuran-2-yl)carbonylpiperazino]-N-(2,4-dichlorobenzyl)-6-methylpyrimidin-4-amine] were 124.3 to 125.8 °C, “relatively weak activity” and 235 ± 45 nM.

By IC50 is commonly meant the concentration at which inhibition is half-maximal. The term melting point denotes the temperature, or range, at which the solid turns liquid.
